Test results taken from PubChem BioAssay (NCI).
“And” between values parts separate entries of the source, which are not always exact repeats. Equal values may be shown once.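 These data come from cells grown in 96-well plates and exposed to compound for 48 hours at five concentrations. At the GI50, growth is halved. TGI: concentration producing complete growth inhibition.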

Columns and labels:
Assay in all cases: NCI anticancer screen, dose series, 48 h
ACHN renal = test system: ACHN renal
HCT-116 colon = test system: HCT-116 colon
NCI-H226 lung = test system: NCI-H226 lung
SK-MEL-2 melanoma = test system: SK-MEL-2 melanoma
A549 NSCLC = test system: A549 NSCLC
RPMI-8226 leukemia = test system: RPMI-8226 leukemia
HCC-2998 colon = test system: HCC-2998 colon
MDA-MB-231 breast = test system: MDA-MB-231 breast
PC-3 prostate = test system: PC-3 prostate
MDA-MB-435 = test system: MDA-MB-435

SMILES	TGI (ACHN renal)	TGI (HCT-116 colon) [µM]	TGI (NCI-H226 lung) [µM]	TGI (SK-MEL-2 melanoma)	GI50 (A549 NSCLC) [µM]	TGI (A549 NSCLC)	GI50 (RPMI-8226 leukemia) [µM]	TGI (RPMI-8226 leukemia)	TGI (HCC-2998 colon) [µM]	GI50 (MDA-MB-231 breast) [µM]	TGI (MDA-MB-231 breast) [µM]	GI50 (ACHN renal) [µM]	GI50 (HCT-116 colon) [µM]	GI50 (PC-3 prostate) [µM]	TGI (PC-3 prostate) [µM]	GI50 (NCI-H226 lung) [µM]	GI50 (SK-MEL-2 melanoma) [µM]	GI50 (MDA-MB-435) [µM]	TGI (MDA-MB-435) [µM]	GI50 (HCC-2998 colon) [µM]
CN(C)C(=O)/N=c1\ss/c(=N\C(=S)N(C)C)n1-c1ccccc1	> 100 µM	47.1	> 100	> 100 µM	0.0483	> 100 µM	0.291	> 100 µM	> 100	–	–	–	–	–	–	–	–	–	–	–
CN=C1Nc2ccc(Cl)cc2C(c2ccccc2)=NN1C	> 100 µM	> 100	> 100	> 100 µM	–	> 100 µM	–	> 100 µM	64.7	–	–	–	–	–	–	–	–	–	–	–
O=C(O)c1ccc2c(c1Nc1ccccc1)C(=O)c1ccccc1C2=O	> 100 µM	> 100	> 100	> 100 µM	51.2	> 100 µM	–	–	–	46.2	> 100	39.7	26.6	54.1	> 100	24.2	51.7	48.1	> 100	–
N/C(=N\N=C\c1cccs1)NO	> 100 µM	> 100	> 100	> 100 µM	–	> 100 µM	–	–	> 100	–	–	–	–	–	–	–	–	–	–	–
C#CCOCn1cnc2c(=S)nc[nH]c21	> 100 µM	–	> 100	> 100 µM	–	> 100 µM	–	> 100 µM	> 100	–	–	–	–	–	–	–	–	–	–	–
NC(CNO)C(=O)O (stereo not drawn)	> 100 µM	> 100	> 100	> 100 µM	–	> 100 µM	–	> 100 µM	–	–	> 100	–	–	–	> 100	–	–	–	> 100	–
CCc1ccccc1NC(=O)CCc1n[nH]c(=S)o1	> 100 µM	42.5	> 100	–	–	> 100 µM	–	> 100 µM	> 100	–	–	–	–	–	–	–	–	–	–	–
CCC1=C(C)/C(=C/c2[nH]c(CBr)c(CC)c2C)N=C1CBr	–	–	–	48.5 µM	–	36.7 µM	–	36.7 µM	26.3	–	–	–	–	–	–	–	–	–	–	–
O=c1c2ccccc2nc(-c2ccc(Br)cc2)n1NC1OC(CO)C(O)C(O)C1O (stereo not drawn)	> 100 µM	> 100	> 100	> 100 µM	–	> 100 µM	–	> 100 µM	> 100	–	–	–	–	–	–	–	–	–	–	–
Cc1cc(C)c(O)c(Cc2cccc(Cc3cc(C)cc(C)c3O)c2O)c1	> 100 µM	> 100	–	> 100 µM	–	> 100 µM	–	> 100 µM	–	–	> 100	–	–	–	> 100	–	–	–	> 100	–
COc1cc(/C=C2\[C@H]3c4c(c(OC)c(C)c(OC)c4OC)C[C@@H](C(=O)N2Cc2ccccc2)N3C(=O)OC(C)C)c(OC)c(C)c1OC	> 100 µM	> 100	56.2	> 100 µM	–	> 100 µM	–	> 100 µM	> 100	–	–	–	–	–	–	–	–	–	–	–
COc1cc2nc(Sc3c([N+](=O)[O-])ncn3C)[nH]c2cc1OC	> 100 µM	> 100	> 100	–	–	> 100 µM	–	> 100 µM	> 100	–	–	–	–	–	–	–	–	–	–	–
COc1cc2ccc3c4c(OC)cc(OC)c(OC)c4c(=O)n(C)c3c2cc1OC	16.7 µM and > 44.7 µM	–	> 42	16.7 µM and > 47.6 µM	1.18	16.7 µM and > 35.8 µM	0.245	2.15 µM and 1.65 µM	> 36.1	–	–	4.88	0.455	–	–	–	3.29	–	–	–
N.N.N.N.N.N.[I-].[Os]	> 100 µM	> 100	> 100	> 100 µM	> 100	> 100 µM	> 100	> 100 µM	> 100	–	–	> 100	> 100	–	–	> 100	> 100	–	–	> 100
Cc1ccc(S(=O)(=O)/N=c2\ssc(Nc3ccccc3)c2Cl)cc1	22.5 µM	–	> 50	> 50 µM	14.6	> 50 µM	7.77	26.8 µM	–	9.84	26	9.58	–	6.95	18.4	19.2	18.3	8.41	22.1	–
COc1ccc(-c2cc(=O)c3c(OC)c(OC)c(OC)c(OC)c3o2)cc1OC	> 100 µM	> 100	> 100	> 100 µM	–	> 100 µM	–	> 100 µM	> 100	–	> 100	–	–	–	–	–	–	–	> 100	–
Oc1ccc(CNCc2ccccc2)c2cccnc12	22.9 µM	> 100	66.7	–	–	> 100 µM	–	0.768 µM	–	–	–	–	–	–	59.8	–	–	–	> 100	–
